Earlier results, collected in patent publication US20250350689A1, “INTRAVENOUS DOFETILIDE AND USES THEREOF” (Hyloris Developments SA, priority 2023, published 2025).
Where “and” joins values, the source holds several entries; their conditions need not be identical. Equal values may be shown once. Read-outs that look alike come from different tables or passages of the source.

How the values were obtained:
[1] = clinical studies, life threatening arrhythmias
QTc interval = details: slope of QTc versus dofetilide plasma concentration, Sedgwick et al
[2] = not given; remark: listed apart in the source

In the case of CN(CCOc1ccc(NS(C)(=O)=O)cc1)CCc1ccc(NS(C)(=O)=O)cc1 [dofetilide], the plasma concentration (infusion of 3.0 μg/mL) is listed as 5.35 ng/mL, the IV dofetilide kinetics (relationship between IV dose and serum concentration) is listed as “linear” and the peak plasma concentration (single dose, 10 min. IV infusion of 1.5 μg/kg) is listed as 1.74 ng/mL and 1.7 ng/mL. The “safety in patients with poor heart function / heart failure” value [1] was “not to increase life threatening arrhythmias”, the “safety in patients with poor heart function / heart failure” value ([1]; listed as Dofetilide) was “safe” and the “QTc change per plasma concentration” value (QTc interval) was 15 to 25 ms/ng/mL. For the same compound, the “plasma concentration Cmax” value ([2]; 500 μg oral dose, single dose) was 1.9 ng/mL and the “time to reach a steady state concentration” value ([2]; oral dofetilide) was “at least 3 days”.
